Assays:
[1] = test system: HBV replication in HepAD38 cells; assay: Anti-HBV replication assay in HepAD38 cells (QPCR of extracellular HBV DNA); assay type: cell-based, HBV (genotype D, serotype ayw); conditions: Hepatitis B virus, 168 h, 7 days incubation, extracellular HBV DNA by QPCR, read-out: Anti-HBV EC50
Method in brief: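 EC50 values reflect 50% reduction of extracellular HBV DNA, measured by QPCR after 7-day treatment of tetracycline-deprived HepAD38 cells with compound […].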

[2] = In vitro cytotoxicity assay (MTT cell viability) in HepG2 cells; assay type: cell-based, human; conditions: human
Method in brief: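 Parental HepG2 cells in EMEM + 10% FBS were exposed to compounds (8 half-log dilutions, 30 μM to 1.0 nM) for 7 days at 37 °C, 5% CO2. MTT was then added for 3-4 h, formazan dissolved in DMSO and absorbance read at 492 nm; CC50 came from 4-parameter fits against vehicle controls.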

Compound	EC50 [1] [nM]	CC50 at 7 days [2] [nM]
Cc1cc(NC(=O)c2c(C)c(C(=O)C(=O)NC(C)(C)c3nc(CN(C)C)no3)n(CCF)c2C)ccc1F [Example 202, 5-(2-((2-(3-((dimethylamino)methyl)-1,2,4-oxadiazol-5-yl)propan-2-yl)amino)-2-oxoacetyl)-N-(4-fluoro-3-methylphenyl)-1-(2-fluoroethyl)-2,4-dimethyl-1H-pyrrole-3-carboxamide]	50 to 499	> 30000
Cc1c(C(=O)Nc2ccc(F)c(Cl)c2)c2n(c1C(=O)C(=O)NCC(C)(C)CO)CCCC2 [Example 466, N-(3-chloro-4-fluorophenyl)-3-(2-((3-hydroxy-2,2-dimethylpropyl)amino)-2-oxoacetyl)-2-methyl-5,6,7,8-tetrahydroindolizine-1-carboxamide]	50 to 499	> 30000
Cc1cc(NC(=O)c2cc(C(=O)C(=O)N[C@@H](C(=O)O)C(C)(C)C)n3c2CCCC3)ccc1F [Example 422, (R)-2-(2-(1-((4-fluoro-3-methylphenyl)carbamoyl)-5,6,7,8-tetrahydroindolizin-3-yl)-2-oxoacetamido)-3,3-dimethylbutanoic acid]	> 1000	> 30000
Cc1cc(NC(=O)c2c(C)c(C(=O)C(=O)Nc3cccnc3)n(C)c2C)ccc1F [Example 204, N-(4-fluoro-3-methylphenyl)-1,2,4-trimethyl-5-(2-oxo-2-(pyridin-3-ylamino)acetyl)-1H-pyrrole-3-carboxamide]	< 50	> 30000
Cc1noc([C@H](C)NC(=O)C(=O)c2c(Cl)c(C(=O)Nc3ccc(F)c(C)c3)c3n2CCC3)n1 [Example 545, (S)-6-chloro-N-(4-fluoro-3-methylphenyl)-5-(2-((1-(3-methyl-1,2,4-oxadiazol-5-yl)ethyl)amino)-2-oxoacetyl)-2,3-dihydro-1H-pyrrolizine-7-carboxamide]	< 50	5000 to 30000
Cc1cc(NC(=O)c2c(C)c(C(=O)C(=O)NC(CC(C)C)c3nn[nH]n3)n(C)c2C)ccc1F (stereo not shown) [Example 80, N-(4-fluoro-3-methylphenyl)-1,2,4-trimethyl-5-(2-((3-methyl-1-(2H-tetrazol-5-yl)butyl)amino)-2-oxoacetyl)-1H-pyrrole-3-carboxamide]	50 to 499	> 30000
Cc1cc(NC(=O)c2cc(C(=O)C(=O)NC(C)(C)CO)n3c2CCC3)ccc1F [Example 537, N-(4-fluoro-3-methylphenyl)-5-(2-((1-hydroxy-2-methylpropan-2-yl)amino)-2-oxoacetyl)-2,3-dihydro-1H-pyrrolizine-7-carboxamide]	50 to 499	> 30000
Cc1cc(NC(=O)c2c(C)c(C(=O)C(=O)NC3(C(F)(F)F)CCOCC3)n(C)c2C)ccc1F [Example 109, N-(4-fluoro-3-methylphenyl)-1,2,4-trimethyl-5-(2-oxo-2-((4-(trifluoromethyl)tetrahydro-2H-pyran-4-yl)amino)acetyl)-1H-pyrrole-3-carboxamide]	< 50	> 30000
Cc1c(C(=O)Nc2cccc(Cl)c2)c(C)n(C)c1C(=O)C(=O)N[C@@H]1CCC[C@@H](O)C1 [Example 689, N-(3-chlorophenyl)-5-(2-(((1R,3R)-3-hydroxycyclohexyl)amino)-2-oxoacetyl)-1,2,4-trimethyl-1H-pyrrole-3-carboxamide]	< 50	> 30000
O=C(NC1(CO)CC(F)(F)C1)C(=O)c1c(Cl)c(C(=O)Nc2ccc(F)c(F)c2)c2n1CCC2 [Example 581, 6-chloro-5-(2-((3,3-difluoro-1-(hydroxymethyl)cyclobutyl)amino)-2-oxoacetyl)-N-(3,4-difluorophenyl)-2,3-dihydro-1H-pyrrolizine-7-carboxamide]	< 50	5000 to 30000
O=C(NC1(CO)CCC1)C(=O)c1c(Cl)c(C(=O)Nc2ccc(F)c(F)c2)c2n1CCCC2 [Example 499, 2-chloro-N-(3,4-difluorophenyl)-3-(2-((1-(hydroxymethyl)cyclobutyl)amino)-2-oxoacetyl)-5,6,7,8-tetrahydroindolizine-1-carboxamide]	< 50	> 30000
